Test results reported in publication PMC6394493 (Cancer Chemotherapy and Pharmacology, 2018).
Read-outs that look alike come from different tables or passages of the source.

Assay: Plasma pharmacokinetics (LC–MS/MS, non-compartmental analysis)
Type: in vivo, Japanese patients
Settings: for AUC(0-inf) / AUC(0-t) / Cmax / Tmax: human, plasma, oral; for AUC(0-inf): read-out: AUCinf, Median; for Cmax: read-out: Cmax, Median
Experimental: The PK parameters were determined by non-compartmental analysis using Phoenix WinNonlin 6.2® (Pharsight, Mountain View, CA).

[1] = 400 mg, Cycle 1 Day 28, 400 mg qd, n = 3

SMILES: Cn1c(=O)n(-c2ccc(C(C)(C)C#N)cc2)c2c3cc(-c4cnc5ccccc5c4)ccc3ncc21 [BEZ235]
- dose dependence of Cmax and AUC (400 to 1400 mg qd): appeared to increase in a dose-dependent manner
- inter-individual variability, coefficient of variation on the AUC and Cmax (at most of the visits and doses): greater than 100%
- AUC(0-inf) (400 mg, Cycle 1 Day 1, 400 mg bid, n = 2): 2000 ng·h/mL
- AUC(0-t) (400 mg, Cycle 1 Day 1, 400 mg bid, n = 4, read-out: AUC0 − 24, Median): 1760 ng·h/mL
- AUC(0-t) (400 mg, Cycle 1 Day 1, 400 mg bid, n = 7, read-out: AUClast, Median): 2280 ng·h/mL
- Cmax (400 mg, Cycle 1 Day 1, 400 mg bid, n = 7): 301 ng/mL
- Tmax (400 mg, Cycle 1 Day 1, 400 mg bid, n = 7, read-out: Tmax, Median): 6 h
- AUC(0-inf) (400 mg, Cycle 1 Day 1, 400 mg qd, n = 2): 978 ng·h/mL
- AUC(0-t) (400 mg, Cycle 1 Day 1, 400 mg qd, n = 3, read-out: AUC0 − 24, Median): 1040 ng·h/mL
- AUC(0-t) (400 mg, Cycle 1 Day 1, 400 mg qd, n = 3, read-out: AUClast, Median): 1040 ng·h/mL
- Cmax (400 mg, Cycle 1 Day 1, 400 mg qd, n = 3): 135 ng/mL
- Tmax (400 mg, Cycle 1 Day 1, 400 mg qd, n = 3, read-out: Tmax, Median): 4 h
- AUC(0-inf) (400 mg, Cycle 1 Day 8, 400 mg bid, n = 1): 2790 ng·h/mL
- AUC(0-t) (400 mg, Cycle 1 Day 8, 400 mg bid, n = 5, read-out: AUC0 − 24, Median): 10700 ng·h/mL
- AUC(0-t) (400 mg, Cycle 1 Day 8, 400 mg bid, n = 6, read-out: AUClast, Median): 9700 ng·h/mL
- Cmax (400 mg, Cycle 1 Day 8, 400 mg bid, n = 6): 1050 ng/mL
- Tmax (400 mg, Cycle 1 Day 8, 400 mg bid, n = 6, read-out: Tmax, Median): 4 h
- AUC(0-inf) (400 mg, Cycle 1 Day 8, 400 mg qd, n = 2): 14300 ng·h/mL
- AUC(0-t) (400 mg, Cycle 1 Day 8, 400 mg qd, n = 3, read-out: AUC0 − 24, Median): 7350 ng·h/mL
- AUC(0-t) (400 mg, Cycle 1 Day 8, 400 mg qd, n = 3, read-out: AUClast, Median): 7350 ng·h/mL
- Cmax (400 mg, Cycle 1 Day 8, 400 mg qd, n = 3): 754 ng/mL
- Tmax (400 mg, Cycle 1 Day 8, 400 mg qd, n = 3, read-out: Tmax, Median): 4 h
- AUC(0-inf) (400 mg, Cycle 1 Day 28, 400 mg bid, n = 1): 2660 ng·h/mL
- AUC(0-t) (400 mg, Cycle 1 Day 28, 400 mg bid, n = 3, read-out: AUC0 − 24, Median): 29400 ng·h/mL
- AUC(0-t) (400 mg, Cycle 1 Day 28, 400 mg bid, n = 4, read-out: AUClast, Median): 34100 ng·h/mL
- Cmax (400 mg, Cycle 1 Day 28, 400 mg bid, n = 4): 3650 ng/mL
- Tmax (400 mg, Cycle 1 Day 28, 400 mg bid, n = 4, read-out: Tmax, Median): 4 h
- AUC(0-t) (400 mg, Cycle 1 Day 28, 400 mg qd, n = 3, read-out: AUC0 − 24, Median): 8920 ng·h/mL
- AUC(0-inf) [1]: 10200 ng·h/mL
- AUC(0-t) (400 mg, Cycle 1 Day 28, 400 mg qd, n = 3, read-out: AUClast, Median): 8920 ng·h/mL
- Cmax [1]: 795 ng/mL
- Tmax (400 mg, Cycle 1 Day 28, 400 mg qd, n = 3, read-out: Tmax, Median): 4 h
- AUC(0-inf) (800 mg, Cycle 1 Day 1, 800 mg qd, n = 1): 1490 ng·h/mL
- AUC(0-t) (800 mg, Cycle 1 Day 1, 800 mg qd, n = 3, read-out: AUC0 − 24, Median): 2560 ng·h/mL
- AUC(0-t) (800 mg, Cycle 1 Day 1, 800 mg qd, n = 3, read-out: AUClast, Median): 2560 ng·h/mL
- Cmax (800 mg, Cycle 1 Day 1, 800 mg qd, n = 3): 154 ng/mL
- Tmax (800 mg, Cycle 1 Day 1, 800 mg qd, n = 3, read-out: Tmax, Median): 8 h
- AUC(0-inf) (800 mg, Cycle 1 Day 8, 800 mg qd, n = 1): 19900 ng·h/mL
- AUC(0-t) (800 mg, Cycle 1 Day 8, 800 mg qd, n = 3, read-out: AUC0 − 24, Median): 17300 ng·h/mL
- AUC(0-t) (800 mg, Cycle 1 Day 8, 800 mg qd, n = 3, read-out: AUClast, Median): 17300 ng·h/mL
- Cmax (800 mg, Cycle 1 Day 8, 800 mg qd, n = 3): 1170 ng/mL
- Tmax (800 mg, Cycle 1 Day 8, 800 mg qd, n = 3, read-out: Tmax, Median): 6 h
- AUC(0-inf) (800 mg, Cycle 1 Day 28, 800 mg qd, n = 2): 13500 ng·h/mL
- AUC(0-t) (800 mg, Cycle 1 Day 28, 800 mg qd, n = 3, read-out: AUC0 − 24, Median): 25000 ng·h/mL
- AUC(0-t) (800 mg, Cycle 1 Day 28, 800 mg qd, n = 3, read-out: AUClast, Median): 24900 ng·h/mL
- Cmax (800 mg, Cycle 1 Day 28, 800 mg qd, n = 3): 1980 ng/mL
- Tmax (800 mg, Cycle 1 Day 28, 800 mg qd, n = 3, read-out: Tmax, Median): 2 h
- AUC(0-inf) (1000 mg, Cycle 1 Day 1, 1000 mg qd, n = 3): 1410 ng·h/mL
- AUC(0-t) (1000 mg, Cycle 1 Day 1, 1000 mg qd, n = 4, read-out: AUC0 − 24, Median): 4330 ng·h/mL
- AUC(0-t) (1000 mg, Cycle 1 Day 1, 1000 mg qd, n = 6, read-out: AUClast, Median): 4490 ng·h/mL
- Cmax (1000 mg, Cycle 1 Day 1, 1000 mg qd, n = 6): 472 ng/mL
- Tmax (1000 mg, Cycle 1 Day 1, 1000 mg qd, n = 6, read-out: Tmax, Median): 5 h
- AUC(0-t) (1000 mg, Cycle 1 Day 8, 1000 mg qd, n = 3, read-out: AUC0 − 24, Median): 8260 ng·h/mL
- AUC(0-inf) (1000 mg, Cycle 1 Day 8, 1000 mg qd, n = 3): 8300 ng·h/mL
- AUC(0-t) (1000 mg, Cycle 1 Day 8, 1000 mg qd, n = 7, read-out: AUClast, Median): 9350 ng·h/mL
- Cmax (1000 mg, Cycle 1 Day 8, 1000 mg qd, n = 7): 912 ng/mL
- Tmax (1000 mg, Cycle 1 Day 8, 1000 mg qd, n = 7, read-out: Tmax, Median): 6 h
- AUC(0-t) (1000 mg, Cycle 1 Day 28, 1000 mg qd, n = 2, read-out: AUC0 − 24, Median): 3740 ng·h/mL
- AUC(0-inf) (1000 mg, Cycle 1 Day 28, 1000 mg qd, n = 2): 3770 ng·h/mL
- AUC(0-t) (1000 mg, Cycle 1 Day 28, 1000 mg qd, n = 4, read-out: AUClast, Median): 4800 ng·h/mL
- Cmax (1000 mg, Cycle 1 Day 28, 1000 mg qd, n = 4): 548 ng/mL
- Tmax (1000 mg, Cycle 1 Day 28, 1000 mg qd, n = 4, read-out: Tmax, Median): 4 h
- AUC(0-inf) (1200 mg, Cycle 1 Day 1, 1200 mg qd, n = 1): 2290 ng·h/mL
- AUC(0-t) (1200 mg, Cycle 1 Day 1, 1200 mg qd, n = 3, read-out: AUC0 − 24, Median): 6420 ng·h/mL
- AUC(0-t) (1200 mg, Cycle 1 Day 1, 1200 mg qd, n = 5, read-out: AUClast, Median): 6420 ng·h/mL
- Cmax (1200 mg, Cycle 1 Day 1, 1200 mg qd, n = 5): 403 ng/mL
- Tmax (1200 mg, Cycle 1 Day 1, 1200 mg qd, n = 5, read-out: Tmax, Median): 6 h
- AUC(0-inf) (1200 mg, Cycle 1 Day 8, 1200 mg qd, n = 1): 14400 ng·h/mL
- AUC(0-t) (1200 mg, Cycle 1 Day 8, 1200 mg qd, n = 4, read-out: AUC0 − 24, Median): 34200 ng·h/mL
- AUC(0-t) (1200 mg, Cycle 1 Day 8, 1200 mg qd, n = 4, read-out: AUClast, Median): 33500 ng·h/mL
- Cmax (1200 mg, Cycle 1 Day 8, 1200 mg qd, n = 4): 1810 ng/mL
- Tmax (1200 mg, Cycle 1 Day 8, 1200 mg qd, n = 4, read-out: Tmax, Median): 4 h
- AUC(0-t) (1200 mg, Cycle 1 Day 28, 1200 mg qd, n = 1, read-out: AUC0 − 24, Median): 43400 ng·h/mL
- AUC(0-t) (1200 mg, Cycle 1 Day 28, 1200 mg qd, n = 2, read-out: AUClast, Median): 37100 ng·h/mL
- Cmax (1200 mg, Cycle 1 Day 28, 1200 mg qd, n = 2): 2170 ng/mL
- Tmax (1200 mg, Cycle 1 Day 28, 1200 mg qd, n = 2, read-out: Tmax, Median): 5.9 h
- AUC(0-inf) (1400 mg, Cycle 1 Day 1, 1400 mg qd, n = 1): 1290 ng·h/mL
- AUC(0-t) (1400 mg, Cycle 1 Day 1, 1400 mg qd, n = 2, read-out: AUC0 − 24, Median): 13700 ng·h/mL
- AUC(0-t) (1400 mg, Cycle 1 Day 1, 1400 mg qd, n = 5, read-out: AUClast, Median): 10200 ng·h/mL
- Cmax (1400 mg, Cycle 1 Day 1, 1400 mg qd, n = 5): 733 ng/mL
- Tmax (1400 mg, Cycle 1 Day 1, 1400 mg qd, n = 5, read-out: Tmax, Median): 8 h
- AUC(0-t) (1400 mg, Cycle 1 Day 8, 1400 mg qd, n = 3, read-out: AUC0 − 24, Median): 36400 ng·h/mL
- AUC(0-t) (1400 mg, Cycle 1 Day 8, 1400 mg qd, n = 5, read-out: AUClast, Median): 35900 ng·h/mL
- Cmax (1400 mg, Cycle 1 Day 8, 1400 mg qd, n = 5): 2480 ng/mL
- Tmax (1400 mg, Cycle 1 Day 8, 1400 mg qd, n = 5, read-out: Tmax, Median): 4 h
- AUC(0-inf) (1400 mg, Cycle 1 Day 28, 1400 mg qd, n = 3): 30700 ng·h/mL
- AUC(0-t) (1400 mg, Cycle 1 Day 28, 1400 mg qd, n = 4, read-out: AUC0 − 24, Median): 18300 ng·h/mL
- AUC(0-t) (1400 mg, Cycle 1 Day 28, 1400 mg qd, n = 4, read-out: AUClast, Median): 18300 ng·h/mL
- Cmax (1400 mg, Cycle 1 Day 28, 1400 mg qd, n = 4): 1510 ng/mL
- Tmax (1400 mg, Cycle 1 Day 28, 1400 mg qd, n = 4, read-out: Tmax, Median): 4 h
- Tmax (across all dose levels and dosing schedules, Day 1, Day 8, Day 28 of Cycle 1, read-out: Median Tmax): ~4 h
- Tmax (all dose levels and dosing schedules, read-out: individual Tmax range): 1 to 24 h
- PK exposures on Day 8 versus Day 1 (qd and bid regimens, Cycle 1): at least threefold higher
